In publication PMC8910697, “Development of VPC-70619, a Small-Molecule N-Myc Inhibitor as a Potential Therapy for Neuroendocrine Prostate Cancer” (International Journal of Molecular Sciences, 2022):
pKd: −log10 of the molar value. “Also recorded” adds a separate entry of the source. Like-named read-outs stand apart in the source and are kept apart here.

Legend:
[1] = Pharmacokinetics after IP and PO dosing; format: in vivo, male Balb/c mice; conditions: 10 mg/kg; for half-life / Cmax: male, Balb/c, mouse, plasma; for Cmax: 70551 in 75:25 PG/PEG 400, 70619 in 20:80 Kolliphor EL
Method: In order to characterize VPC-70619 as a drug candidate against N-myc, its pharmacokinetic (PK) characteristics were evaluated in Balb/c mice following intraperitoneal (IP) and peroral (PO) administrations. As presented in Figure 5, we determined the PK properties of VPC-70619 and compared it to the parental molecule, VPC-70551. […] The clearance of 70551 for PO delivery was extremely slow, and we could not determine the T1/2 in the experimental conditions used for this assay. […] Therefore, VPC-70619 was deemed to have appropriate efficacy in vivo, and a better pharmacokinetic profile due to higher bioavailability for both oral and intraperitoneal administration.
Bienta Enamine Biology Services (Kyiv, Ukraine) conducted PK studies according to the Enamine PK study protocols and Institutional Animal Care and Use Guidelines. The PK studies were reviewed and approved by the Bienta Animal Care and Use Committee (BACUC) under the project identification codes PK-VPC-112618 (approved 17 December 2018) and PK-VPC-101119 (approved 21 October 2019), for VPC-70551 and […], respectively. Evaluation of 70619 and 70551 was conducted in male Balb/c mice through intraperitoneal (IP) and peroral (PO) administration. Measurements were taken at six time points: 5, 15, 60, 120, 240, and 360 min for IP; 15, 30, 60, 120, 240, and 480 min for PO. Four mice were included in each treatment group for each time point; one mouse each for IP and PO was included as a control. Initial target administration for both IP and PO was 10 mg/kg dose level, 2 mg/mL dose concentration, and 5 mL/kg dose volume. Concentration of the compounds was evaluated in the plasma samples using an LC-MS/MS system.

IMR32 cells = assay: Cell viability (CellTiter-Glo), IMR32; format: cell-based; conditions: Homo sapiens, IMR-32
Method: (§1) The 54 compounds were tested at 10 µM for their inhibition of the IMR32 human neuroblastoma cell line, in which the MYCN gene is amplified and actively expressed (Table 3). HO15.19 cell line (Myc-negative) was used in parallel as a compound specificity control.
(§2) Viability of N-Myc positive (IMR32and NCI-H660) and negative (HO15.19) cells were determined using the CellTiter-Glo Luminescent Cell Viability Assay (Promega cat. G7570) (Madison, WI, USA). Cells were seeded into a 96-well white plate with a clear bottom: 10,000 cells per well for the IMR32 cells cultured in EMEM supplemented with 10% FBS, 2000 HO15.19 cells per well in Eagle’s minimum essential medium (EMEM) supplemented with 10% FBS, and 2000 cells per well for the NCI-H660 neuroendocrine cells cultured in RPMI supplemented 5% FBS, 1% Insulin-Transferrin-Selenium (Thermo Fisher, 41400-045), 10nM b-estradiol (Sigma, E8875), 10nM hydrocortisone (Sigma H0888) and 1% matrigel. Following 24 h incubation, the cells were treated with serial dilutions of the derivatives along with the respective parental compound starting at 25 μM for 72 h. Cell Titer Glo was added to each well at a ratio of 1:1 and incubated on a shaker at RT for 2 min. Luminescence and IC50 was measured with the TECAN InfiniteM200 plate reader (Männedorf, Switzerland).

N-Myc-Max complex = molecular target: T1, N-Myc-Max complex (Homo sapiens, UniProt P04198+P61244); assay: Microscale thermophoresis (MST) binding; conditions: for binding to N-Myc-Max complex (in words): MST
T1 construct: N-Myc (amino acids 309–394) and Max (amino acids 12–93); 6xHis (N); made in house; host or cells: E. coli BL21
T1 sequence (P04198 379-464 limits assumed): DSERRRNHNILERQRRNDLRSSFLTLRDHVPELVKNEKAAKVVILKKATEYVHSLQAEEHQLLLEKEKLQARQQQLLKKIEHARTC
T1 sequence (P61244 12-93 isoform P61244-2 limits assumed): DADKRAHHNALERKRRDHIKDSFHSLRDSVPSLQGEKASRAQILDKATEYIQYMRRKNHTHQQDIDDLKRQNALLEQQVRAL
From the text: We first performed a microscale thermophoresis (MST) assay to validate the direct binding of VPC-70619 to the recombinant N-Myc-Max complex and to calculate the binding affinity. We evaluated the effect of increasing concentrations of 70619 on the movement of a fluorescent labelled N-Myc-Max complex through a temperature gradient induced by an infrared laser.
The bHLHLZ domain of N-Myc (amino acids 309–394) and Max (amino acids 12–93) protein sequences were cloned into pETDuet with an N-terminal 6×His. pETDuet-His-NMyc-Max was transformed and expressed in E. coli BL21 and induced with 0.5 mM isopropyl-β-D-thiogalactopyranoside (IPTG) at 16 °C overnight. The cultures were lysed by sonication and combined for purification by immobilized metal ion chromatography (IMAC) with nickel-nitrilotriacetic acid (Ni-NTA) resin. The bound proteins were eluted from the column with 20 mM Tris, pH = 8, 500 mM NaCl, 5% glycerol, 300 mM imidazole, 5 mM βMe, and 0.1 mM PMSF. Size exclusion chromatography with Superdex 75 was used to increase the purity of the N-Myc-Max protein sample. The purified protein complex was used in subsequent BLI and MST experiments.
An MST assay was conducted to determine the binding affinity of 70619 to the purified N-Myc-Max protein complex. N-Myc-Max protein samples were labeled with the red fluorescent dye NT647 using the Monolith NT Protein labeling kit RED-NHS amine-reactive (NanoTemper Technologies, München, Germany); 70619 was serial diluted with 100% DMSO and mixed with the labeled fluorescent N-Myc-Max (final concentration of protein: 5 nM) in the assay reaction buffer (20 mM Tris, pH = 8, 100 mM NaCl, 0.2 mM TCEP, 0.1 mM PMSF, 5% glycerol) starting at 600 μM, with a final concentration of DMSO of 5%. The protein/inhibitor solution was mixed and incubated at room temperature in the dark for 5 min before being filled into the capillaries. […] Analysis of the data for Kd estimation was calculated with the MO Affinity Analysis software from Nanotemper (München, Germany).

HO15.19 cells = assay: Cell viability counter-screen (CellTiter-Glo), Myc-negative HO15.19; format: cell-based
Method: as §1, §2

SMILES: N#Cc1ccc(NNC(=O)c2ccc(C#N)c(Cl)c2)c(C(F)(F)F)c1 [compound 70619]
- half-life ([1]; ip, read-out: plasma half-life (T1/2) IP): 5.5 h
- half-life ([1]; po, read-out: plasma half-life (T1/2) PO): 7.12 h
- Cmax ([1]; IP, read-out: Cmax IP): 29.5 µg/mL
- Cmax ([1]; PO, read-out: Cmax PO): 24 µg/mL
- adverse effects / signs of toxicity in PK animals ([1]; single dose IP or PO): No signs of toxicity
- inhibition at 10 µM (IMR32 cells): 99.4%
- binding to N-Myc-Max complex (in words) (N-Myc-Max complex): bind weakly
- binding to N-Myc-Max complex (in words) (N-Myc-Max complex; listed as VPC-70619): somewhat weak affinity
- pKd (N-Myc-Max complex; estimate, limited solubility in assay buffer, read-out: dissociation constant): < 3.89
- % Inhibition in HO15.19 (10 µM) (HO15.19 cells; 10 µM, Myc-negative specificity control): 14.1%
- inhibition at 10 µM (HO15.19 cells; Rattus norvegicus, HO15.19, 10 µM, Myc-negative specificity control): 14%
- cytotoxicity in Myc-negative HO15.19 (in words) (HO15.19 cells; counter-screen): did not report any strong inhibitory effects; also recorded: minimal cytotoxicity
